Results as given in patent US9296723B2, “NAMPT inhibitors” (AbbVie Inc., priority 2012, dated 2016).

Legend:
[1] = tested on: PC3 cells; assay: NAMPT Cell Proliferation Assay (Cell Titer Glo); format: cell-based; conditions: Homo sapiens, PC-3, 120 h, incubated 5 days, cell viability
How it was run: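 Viability measured by Cell Titer Glo luminescence after 5-day exposure of attached PC3 cells to compound, dosed as 10-fold serial dilutions ([…]) in RPMI/10% FBS at 37 °C and 5% CO2. Percent inhibition fitted to sigmoidal dose-response curves for IC50.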

[2] = target: T1, NAMPT (Homo sapiens, UniProt P43490); assay: Time-Resolved Fluorescence Resonance Energy Transfer (TR-FRET) Binding Assay of NAMPT; conditions: 6.8 nM NAMPT, 200 nM probe, equilibrated 3 hours, no substrates
How it was run: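 IC50s come from four-parameter logistic fits of control-normalized Em520/Em495 TR-FRET ratios (Ex 337 nm) against compound concentration. Before reading, enzyme, probe, antibody and compound equilibrated for 3 h at room temperature.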

[3] = target: T1, NAMPT; assay: TR-FRET Binding Assay of NAMPT with PRPP; conditions: 2 nM NAMPT, 2 nM probe, 200 µM PRPP and 2.5 mM ATP, equilibrated 16 hours
How it was run: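 Substrates present: PRPP at 200 µM and ATP at 2.5 mM, final, alongside 2 nM enzyme, 2 nM tracer and 1 nM terbium anti-His donor in 2% DMSO. A 16-hour equilibration preceded the time-resolved FRET read, allowing compounds to be enzymatically modified.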

T1 sequence (P43490 whole entry): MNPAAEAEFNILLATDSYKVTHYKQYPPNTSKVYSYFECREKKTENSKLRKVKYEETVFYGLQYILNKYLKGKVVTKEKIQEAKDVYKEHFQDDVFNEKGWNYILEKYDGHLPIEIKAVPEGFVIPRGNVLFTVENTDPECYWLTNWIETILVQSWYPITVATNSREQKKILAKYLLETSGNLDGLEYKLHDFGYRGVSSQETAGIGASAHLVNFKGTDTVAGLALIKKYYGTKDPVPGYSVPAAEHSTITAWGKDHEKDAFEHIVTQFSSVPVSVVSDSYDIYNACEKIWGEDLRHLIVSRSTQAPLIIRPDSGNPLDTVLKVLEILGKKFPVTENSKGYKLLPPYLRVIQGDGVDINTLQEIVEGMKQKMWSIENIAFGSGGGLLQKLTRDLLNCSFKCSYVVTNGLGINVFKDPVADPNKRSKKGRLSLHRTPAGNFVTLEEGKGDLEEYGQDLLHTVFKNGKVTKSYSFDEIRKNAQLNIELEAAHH

Structure (SMILES) | IC50 [1] [nM] | IC50 [2] [nM] | IC50 [3] [nM]
COCC(=O)N1CC[C@@H](Oc2ccc(NC(=O)N3CC(c4cccnc4)C3)cc2)C1 [Example 331, N-(4-{[(3R)-1-(methoxyacetyl)pyrrolidin-3-yl]oxy}phenyl)-3-(pyridin-3-yl)azetidine-1-carboxamide] | 42.4 | 81 | 0.351
O=C(Nc1ccc(O[C@@H]2CCN(C(=O)C3CCCC3)C2)cc1)N1CC(c2cccnc2)C1 [Example 334, N-(4-{[(3R)-1-(cyclopentylcarbonyl)pyrrolidin-3-yl]oxy}phenyl)-3-(pyridin-3-yl)azetidine-1-carboxamide] | 32.4 | 94.9 | 0.449

These reach a lower IC50 [1]. Values come first.

IC50 [1] [nM] | IC50 [2] [nM] | IC50 [3] [nM] | Structure (SMILES)
22.2 | 61.7 | 0.474 | O=C(Nc1ccc(O[C@@H]2CCN(C(=O)C3CCCCC3)C2)cc1)N1CC(c2cccnc2)C1 [Example 332, N-(4-{[(3R)-1-(cyclohexylcarbonyl)pyrrolidin-3-yl]oxy}phenyl)-3-(pyridin-3-yl)azetidine-1-carboxamide]
22.4 | 56.1 | 0.416 | CC(C)CC(=O)N1CC[C@@H](Oc2ccc(NC(=O)N3CC(c4cccnc4)C3)cc2)C1 [Example 333, N-(4-{[(3R)-1-(3-methylbutanoyl)pyrrolidin-3-yl]oxy}phenyl)-3-(pyridin-3-yl)azetidine-1-carboxamide]
15.8 | 45.7 | 0.495 | CC(C)C(C)C(=O)N1CC[C@@H](Oc2ccc(NC(=O)N3CC(c4cccnc4)C3)cc2)C1 (stereo partly drawn) [Example 335, N-(4-{[(3R)-1-(2,3-dimethylbutanoyl)pyrrolidin-3-yl]oxy}phenyl)-3-(pyridin-3-yl)azetidine-1-carboxamide]
